From patent publication US20230203060A1 (GENFLEET THERAPEUTICS (SHANGHAI) INC., priority 2020, published 2023)

Tests used:
[1] = tested on: KRAS G12C mutant NCI-H358 cells; assay: Cell proliferation inhibition experiment, 3D spheroid, CellTiter-Glo, NCI-H358; format: cell-based, human; conditions: Homo sapiens, NCI-H358, 120 h, NCI-H358 (KRAS G12C mutant) 3D spheroid, 5 days with compound, CellTiter-Glo; read-out: H358 IC50
Method in brief: (§1)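 Cells seeded in 2% FBS medium in spheroid plates (800 H358 or 400 A549 per well), grown overnight to form 3D spheroids, then exposed to 3.16-fold compound dilutions (0.1% DMSO) for 5 days. CellTiter-Glo luminescence gave inhibition vs DMSO and medium blanks; IC50 by four-parameter fit.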

[2] = tested on: phosphorylated ERK downstream of KRAS G12C in MIA PaCa2 cells; assay: Cell p-ERK detection experiment (HTRF) in MIA PaCa2; format: cell-based, human; conditions: Homo sapiens, MIA PaCa-2, 2 h, MIA PaCa2 cells, 2 hours with compound, Advance ERK phospho-T202/Y204 HTRF kit; read-out: p-ERK IC50
Text: Raw materials and instruments: MIA PaCa-2 purchased from ATCC; article number: CRL-1420; batch number: 63143594; DMEM purchased from Gibco; article number: 11995-065; batch number: 2186878; FBS purchased from Gibco; article number: 10099-141; batch number: 2109290CP; Horse serum purchased from Gibco; article number: 16050-122; batch number: 1818976; Trypsin-EDTA purchased from Gibco; article number: 25200-072; batch number: 2085552; PS purchased from Gibco; article number: 15140-122; batch number: 2145451; DMSO purchased from VWR AMRESCO; article number: 0231-500ML; batch number: 0457C072; 96-well cell culture plate purchased from Corning; article number: 3599; batch number: 22718601; white opaque 96-well plate purchased from Cisbio; article number: 66PL96025; batch number: N°05; Advance ERK phospho-T202/Y204 kit purchased from Cisbio; article number: 64AERPEH; batch number: 11D; microplate reader purchased from PerkinElmer; model: Envision MLD2105-0020; equipment number 1050369.
MIA PaCa2 was a KRAS G12C mutant human pancreatic cancer cell line cultured in 10% FBS+2.5% Horse serum DMEM culture medium. Cells at logarithmic growth stage were taken, digested with trypsin-EDTA, then collected and counted, and 2.5E4 cells were inoculated in a 96-well cell culture plate and cultured overnight. A 3.16-fold gradient concentration stock solution of 1000× compound was prepared with DMSO, and diluted 200-fold to 5× compound stock solution with culture medium. On the second day after cell inoculation, 5× compound stock solution was added to each cell culture well, with a final concentration of 1× and a DMSO content of 0.1%. DMSO was used as experimental control (control). After the compound was added and cultured for two hours, the residual culture medium was removed. 50 μL of cell lysate (from Advance ERK phospho-T202/Y204 kit, the same below) was added to each well, mixed well and incubated for 30 minutes, and then 16 μL of the mixed solution was transferred to a white opaque 96-well plate, and 16 μL of cell lysate was added to the blank wells. After the transfer was completed, 4 μL of p-ERK HTRF antibody (from Advance ERK phospho-T202/Y204 kit) mixture was added to each well, incubated for 4 hours, and the fluorescence value was read with the microplate reader. The inhibition rate of the compound IR (%)=(RLU control -RLU compound)/(RLU control-RLU blank)×100% was calculated. The gradient dilution concentration of the compound and the corresponding cell proliferation inhibition rate were fitted by Prism 8 four-parameter method, and the IC50 value was calculated. The compounds prepared in the above embodiments of the present disclosure have inhibitory activity of 0.0001 μM to 1 μM on the phosphorylated ERK level downstream of the cell channel of KRAS G12C protein mutant; some compounds have inhibitory activity of 0.001 μM to 1 μM or 0.001 μM to 0.5 μM on phosphorylated ERK level downstream of cell channel of KRAS G12C protein mutant.

[3] = tested on: A549 cells (KRAS G12S mutant); assay: Cell proliferation inhibition experiment, 3D spheroid, CellTiter-Glo, A549; format: cell-based, human; conditions: Homo sapiens, A549, 120 h, A549 (KRAS G12S mutant) 3D spheroid, 5 days with compound, CellTiter-Glo; read-out: A549 IC50
Method in brief: as §1

[4] = target: T1, KRAS G12C (Homo sapiens, UniProt P01116, G12C); assay: KRAS G12C NEA-HTRF experiment (SOS1-catalyzed displacement of GDP by GTP); format: biochemical
T1 construct: purchased Reactionbiology
Text: Raw materials and instruments: KRAS G12C (his-tag) purchased from Reactionbiology; batch number 3496; SOS1 purchased from Reactionbiology; batch number: 3501; GTP purchased from Sigma; article number: G8877; batch number: SLBV1450; Tris-HC1 purchased from Sigma; EDTA purchased from absin; article number: abs42017668; batch number: JE20; NaCl purchased from Sigma; article number: 55886; batch number: SLBW4193; MgCl2 purchased from Shyuanye; article number: R21455; batch number: L07S9G69806; HEPES purchased from Life Technologies; article number: 15630-080; batch number: 2037042; DTT purchased from Thermo Fisher; article number: R0862; batch number: 00608918; Triton X-100 purchased from Sigma; article number: T8787-100 ML; batch number: SLBW7103; DY647-labeled GDP purchased from Jena Bioscience; article number: NU-840-647P1; batch number: BM019-045; Anti-6H1S-Tb purchased from Cisbio; article number: 61H12TLA; batch number: 13A; Bradford Assay Kit purchased from Thermo Fisher; article number: 23246; batch number: UG287474; white opaque 96-well plate purchased from Cisbio; article number: 66PL96025; batch number: N°06; NAP-5 column purchased from GE Healthcare; article number: 17085301; batch number: 16995164; mircoplate reader purchased from PerkinElmer; model: Envision MLD2105-0020; equipment number 1050369. The effect of compounds on SOS1-catalyzed displacement of GDP by GTP on KRAS protein was examined using a homogeneous time-resolved fluorescence (HTRF) method. 30 μM 6×his-tagged KRAS G12C recombinant protein was incubated with 80 μM fluorescent dye DY647-labeled GDP in labeling buffer (1 mM DTT, 7.5 mM EDTA, 25 mM Tris-HCl, 45 mM NaCl) at 20° C. in the dark for 2 hours, purified using NAP-5 column, and then protein quantification was performed with Bradford Assay Kit after purification to determine the concentration of KRAS […] 3.16-fold gradient concentration stock solution of 1000× compound was prepared with DMSO, and diluted 250-fold to 4× compound stock solution with reaction buffer (40 mM HEPES, 10 mM MgCl2, 1 mM DTT, 0.002% Triton X-100). KRAS G12C-GDP/Tb working solution (40 nM KRAS […] Tb) and SOS1/GTP working solution (0.2 μM SOS1, 200 μM GTP) were prepared using the reaction buffer. A white opaque 96-well plate was taken, and 5 μL of 4× compound stock solution and 10 μL of KRAS G12C-GDP/Tb working solution were added to each well. 5 μL of reaction buffer instead of 4x compound stock solution was used in the control well. After incubation in the dark for 15 minutes at 20° C., 5μL of SOS1/GTP working solution was added thereto, and the fluorescence value (excitation wavelength: 320 nm, emission wavelength: 615 nm and 665 nm) was read after incubating at 20° C. in the dark for 2 hours. Another T0 group was set up with 10 μL reaction buffer+10 μL KRAS G12C-GDP/Tb working solution, and the fluorescence value was read directly by the microplate reader. The fluorescence signal ratio RLU=(665 nm signal/615 nm signal)×10^4; and the compound inhibition rate IR (%)=(RLUcompound-RLUcontrol)/(RLUT0-RLUcontrol)×100% were calculated. The IC50 value was calculated by fitting the gradient dilution concentration of compound and the corresponding inhibition rate with the four-parameter method. The NEA activity of the compounds prepared in the above embodiments of the present disclosure was 0.0001 μM to 1 μM; the inhibitory activity of some compounds on KRAS G12C mutant MIA PaCa-2 cells was 0.001 μM to 0.5 μM or 0.001 μM to 0.1 μM.

T1 sequence (P01116 1-188 isoform P01116-2 G12C): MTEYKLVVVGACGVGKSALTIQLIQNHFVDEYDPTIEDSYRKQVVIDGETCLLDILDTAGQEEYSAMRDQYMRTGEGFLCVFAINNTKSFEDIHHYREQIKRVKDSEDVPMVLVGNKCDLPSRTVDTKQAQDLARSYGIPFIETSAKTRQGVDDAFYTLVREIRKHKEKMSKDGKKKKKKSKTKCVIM

Structure (SMILES)	IC50 [1] [nM]	IC50 [2] [nM]	IC50 [3] [nM]	IC50 [4] [nM]
C=CC(=O)N1CCN2C(=O)c3c(Oc4ccccc4C(C)C)nc(-c4c(O)cccc4F)c(Cl)c3OC[C@H]2C1 [Z18, (6aR)-8-acryloyl-4-chloro-3-(2-fluoro-6-hydroxyphenyl)-1-(2-isopropylphenoxy)-6,6a,7,8,9,10-hexahydro-12H-pyrazino[2,1-c]pyrido[3,4-f][1,4]oxazepin-12-one]	7	73	8680	
C=CC(=O)N1CCN2C(=O)c3c(N4C[C@H](C)N(C)C[C@@H]4C)nc(-c4ccccc4F)c(Cl)c3OC[C@H]2C1 [Z483, (R)-8-acryloyl-4-chloro-3-(2-fluorophenyl)-1-((2S,5S)-2,4,5-trimethylpiperazin-1-yl)-6,6a,7,8,9,10-hexahydro-12H-pyrazino[2,1-c]pyrido[3,4-f][1,4]oxazepin-12-one]		260		340
C=CC(=O)N1CCN2C(=O)c3c(N4CCN5CCC[C@@H]5C4)nc(-c4c(O)cccc4F)c(Cl)c3OC[C@H]2C1 [Z317-2, (6aR)-8-acryloyl-4-chloro-3-(2-fluoro-6-hydroxyphenyl)-1-((R)-hexahydropyrrolo[1,2-a]pyrazin-2(1H)-yl)-6,6a,7,8,9,10-hexahydro-12H-pyrazino[2,1-c]pyrido[3,4-f][1,4]oxazepin-12-one]	23.7	162		
C=CC(=O)N1CCN2C(=O)c3c(N4CC(N(C)CC)CC4(C)C)nc(-c4ccccc4F)c(Cl)c3OC[C@H]2C1 (stereo partly drawn) [Z657, (6aR)-8-acryloyl-4-chloro-1-(4-(methylethylamine)-2,2-dimethylpyrrolidin-1-yl)-3-(2-fluorophenyl)-6,6a,7,8,9,10-hexahydro-12H-pyrazino[2,1-c]pyrido[3,4-f][1,4]oxazepin-12-one]		93		31.5
C=CC(=O)N1CCN2C(=O)c3c(N4C[C@H](NCC(F)(F)F)CC4(C)C)nc(-c4ccccc4F)c(Cl)c3OC[C@H]2C1 (single isomer, unassigned) [Z662-2]		586		235
C=CC(=O)N1CCN2C(=O)c3c(N4CCN5CCCC5(C)C4)nc(-c4c(O)cccc4F)c(Cl)c3OC[C@H]2C1 (stereo partly drawn) [Z339, (6aR)-8-acryloyl-4-chloro-3-(2-fluoro-6-hydroxyphenyl)-1-(8a-methyloctahydropyrrolo[1,2-c]pyrazin-6 (2H)-one-1-yl)-6,6a,7,8,9,10-hexahydro-12H-pyrazino[2,1-c]pyrido[3,4-f][1,4]oxazepin-12-one]	29	143		
C=CC(=O)N1CCN2C(=O)c3c(N4CCCC4(C)C)nc(-c4ccccc4F)c(Cl)c3OC[C@H]2C1 [Z147, (R)-8-acryloyl-4-chloro-1-(2,2-dimethylpyrrolidin-1-yl)-3-(2-fluorophenyl)-6,6a,7,8,9,10-hexahydro-12H-pyrazino[2,1-c]pyrido[3,4-f][1,4]oxazepin-12-one]	22	180		
C=CC(=O)N1CCN2C(=O)c3c(N4CC(N5CC(C(F)(F)F)C5)CC4(C)C)nc(-c4ccccc4F)c(Cl)c3OC[C@H]2C1 (single isomer, unassigned) [Z608-2]		286		75.8
C=CC(=O)N1CCN2C(=O)c3c(N4C[C@@H](N5CC(F)C5)CC4(C)C)nc(-c4ccccc4F)c(F)c3OC[C@H]2C1 [Z654-1, (R)-8-acryloyl-4-fluoro-1-((S)-4-(3-fluoroazetidin-1-yl)-2,2-dimethylpyrrolidin-1-yl)-3-(2-fluorophenyl)-6,6a,7,8,9,10-hexahydro-12H-pyrazino[2,1-c]pyrido[3,4-f][1,4]oxazepin-12-one]		1720		1820
